Measurements from patent US7767671B2, “3-Quinolinecarbonitrile protein kinase inhibitors” (Wyeth, priority 2004, dated 2010).
Structures can show the parent of a compound that is named as a salt.

Experiments:
[1] = target: T1, Raf and/or Mek kinase (human c-Raf, GST-MEK1) (Homo sapiens, UniProt P04049+Q02750); experiment: Raf/Mek kinase cascade assay; assay type: biochemical; details: c-Raf dependent activation of GST-MEK and GST-MAPK, phospho-MAPK ELISA; (a)/(b)/(c) = average of two/three/four runs
T1 construct: Sf9 insect cell lysate containing full length 6his-tagged recombinant human c-Raf; 6His; host or cells: Sf9 insect cells (c-Raf, used as lysate); E. coli (MEK1-GST, GST-MAPK)
T1 sequence (P04049 whole entry): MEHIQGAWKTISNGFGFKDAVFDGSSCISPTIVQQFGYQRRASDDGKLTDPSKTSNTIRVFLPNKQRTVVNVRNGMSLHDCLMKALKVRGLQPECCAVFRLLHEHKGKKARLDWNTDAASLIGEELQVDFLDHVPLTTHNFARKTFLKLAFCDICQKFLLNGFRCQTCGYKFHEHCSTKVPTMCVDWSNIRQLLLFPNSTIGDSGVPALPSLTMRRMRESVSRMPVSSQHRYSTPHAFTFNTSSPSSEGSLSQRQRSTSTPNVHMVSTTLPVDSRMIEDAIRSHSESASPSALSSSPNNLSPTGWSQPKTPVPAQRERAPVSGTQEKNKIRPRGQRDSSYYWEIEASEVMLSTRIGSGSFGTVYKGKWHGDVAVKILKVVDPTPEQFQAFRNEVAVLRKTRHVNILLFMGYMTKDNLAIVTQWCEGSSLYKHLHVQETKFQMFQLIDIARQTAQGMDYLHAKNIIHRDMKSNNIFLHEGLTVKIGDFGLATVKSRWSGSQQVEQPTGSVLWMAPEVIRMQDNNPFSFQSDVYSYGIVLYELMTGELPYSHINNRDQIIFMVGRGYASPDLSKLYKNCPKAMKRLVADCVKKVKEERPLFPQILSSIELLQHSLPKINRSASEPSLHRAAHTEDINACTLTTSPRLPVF
T1 sequence (Q02750 whole entry): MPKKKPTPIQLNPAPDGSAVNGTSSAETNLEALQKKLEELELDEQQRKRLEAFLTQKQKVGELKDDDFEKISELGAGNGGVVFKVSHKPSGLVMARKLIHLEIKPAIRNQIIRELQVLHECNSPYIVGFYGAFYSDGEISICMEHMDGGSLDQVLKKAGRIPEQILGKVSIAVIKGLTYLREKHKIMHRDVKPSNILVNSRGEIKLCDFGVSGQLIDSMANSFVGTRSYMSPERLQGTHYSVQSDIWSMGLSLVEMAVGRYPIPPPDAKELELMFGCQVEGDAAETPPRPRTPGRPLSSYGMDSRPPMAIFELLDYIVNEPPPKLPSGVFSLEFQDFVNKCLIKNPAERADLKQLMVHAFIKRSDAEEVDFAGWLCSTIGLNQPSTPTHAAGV
Procedure: Raf/Mek Kinase Cascade Assay Procedure
(Specific Activity: ˜200 U/ml). Human Non-active Mek-1-GST and human GST-MAP kinase (recombinant proteins produced in E. coli).
Stock Solutions Raf/Mek Cascade Assay:
• 1. Assay Dilution Buffer (ADB): 20 mM MOPS, pH 7.2, 25 mM β-glycerol phosphate, 5 mM EGTA, 1 mM sodium orthovanadate, 1 mM dithiothreitol; • 2. Magnesium/ATP Cocktail: 500 μM cold ATP and 75 mM magnesium chloride in ADB; • 3. Active Kinase: Human Active c-Raf: Use at 0.4 U per assay point; • 4. Non-active GST-MEK1: Use at 0.1 μg per assay point; and • 5. Non-active GST-p42 MAP Kinase: Use at 1.0 μg per assay point. Stock Solutions ELISA: • 1. TBST-Tris (50 mM, pH 7.5), NaCl (150 mM), Tween-20 (0.05%); • 2. Superblock (Pierce); • 3. Anti-GST Ab (Pharmacia); • 4. Anti-Phospho MAPK (Sigma); and • 5. Anti-Mouse Ab/Europium conjugate (Wallac). Assay Procedure: First Stage: c-Raf Dependent Activation of GST-MEK and GST-MAPK • 1. Add […] of ADB per assay (i.e. per well of a 96 well plate); • 2. Add 10 ml of 0.5 mM cold ATP and 75 mM magnesium chloride in ADB; • 3. Add 2 ml of c-Raf (0.4 U/assay), in conjunction with 1.6 ml non-active MEK1 (0.4 […]/assay); • 4. Add 4 ml of non-active GST-p42 MAP Kinase (1.0 mg/assay); • 5. Incubate for 60 minutes at 30° C. in a shaking incubator; • 6. Transfer this mixture to an anti-GST Ab coated 96 well plate (Nunc Immunosorb plates coated o/n with a-GST, then blocked with Pierce Superblock); • 7. Incubate for 60 minutes at 30° C. in a shaking incubator; • 8. Wash 3× with TBST, add Anti-Phospho MAPK (Sigma) (1:3000); • 9. Incubate for 60 minutes at 30° C. in a shaking incubator; • 10. Wash 3× with TBST, add Anti-Mouse Ab/Europium conjugate (Wallac) (1:500); • 11. Incubate for 60 minutes at 30° C. in a shaking incubator; • 12. Wash 3× with TBST, Read plates in Wallac Victor model Plate Reader; and • 13. Collect data analyze in Excel for single point and IC50 determinations.
Single point assay—% inhibition at […] (% Inhibition=1−cpd·treated sample/untreated control). IC50 determinations—done on compounds from single point assays with >80% inhibition. Typically, the Raf/Mek assay is run at compound concentrations from 10 μM to 1 nM in half log dilutions. (% inhibition is determined for each compound concentration). The results obtained measure Raf and/or Mek kinase inhibition, and for representative compounds of this invention are listed in Table 1.

LoVo = experiment: Cell based screen for inhibitors of Raf and/or Mek kinase (SRB), LoVo; design: species or system human; details: LoVo cells, four days incubation, (a)/(b)/(c) = average of two/three/five runs
Procedure: (§1) Cell Based Screen for Inhibitors of Raf and/or Mek Kinase. Materials
Cell Lines: Human adenocarcinoma cell line LoVo, known to be growth inhibited by low nM concentrations of a reference standard inhibitor of Ras and human adenocarcinoma cell line CaCo-2, known to be growth resistant to the same reference compound.
Cell Media: RPMI 1640 with 10% Fetal Bovine Serum supplemented with L-glutamine and Penicillin/Streptomycin.
(§2) Cells are plated at 2000 cells per well for cell line LoVo and 1500 cells for cell line CaCo-2 in 96 well plates. Cells are plated in media (200 μl) and allowed to adhere overnight at 37° C. At 24 hours post plating, compounds are added directly at a volume of 0.5 μl. For the qualitative screen (compounds screened at 25 μM) compound is added directly to cells. For the quantitative screen, compound is first diluted in DMSO to generate concentrations of compound or reference standard of: 1, 5, 10 and 25 μM. It is advisable to make the dilutions in an identical 96 well plate so that compounds can be added using a multichannel micropipettor set at 0.5 μl. The cells are then incubated for four days after which the media is removed using a 12 well manifold by first tipping the plate forward at a 45 degree angle and then inserting the manifold in an upright orientation to prevent the tips of the manifold from disturbing cells at the bottom of the plate. 200 μl of normal saline is then added to each well using an 8 well multichannel pipettor, followed by the careful addition of 50 μl of 50% TCA. The plates are then incubated for 2 hours at 4° C., after which the supernatant is removed using the same technique as above and the plated cells are washed twice with 200 μl water. The plates are then air dried and 50 μl of SRB stock solution is carefully added so that the entire bottom of each well is covered. This again can be done using an 8 well multichannel pipettor. The SRB is incubated with fixed cells for 15 minutes at room temperature after which the SRB is removed with the manifold as described above and the plates washed twice with 350 μl of 1% acetic acid per well each time. The plates are then air dried after which the bound SRB is released from protein by the addition of 200 μl of Tris base. Resolubilizing the SRB is aided by placing the plates on a rotator for 15-30 minutes. The absorbance of each well is determined at 550 or 562 nm using a microtiter plate reader.
(§3) Each compound or dilution thereof is performed in triplicate. Outliers are identified by visual inspection of the data. Each plate should have a “0” control (vehicle only).
(§4) Quantitative Assay: A standard curve is constructed by plotting the concentration of compound against the average absorbance calculated at that concentration. A curve is plotted and the concentration at which the curve passes through the 50% the absorbance mark seen in the “0” control well is the IC50 calculated for that compound. Multiple entries for a given compound indicate that it is tested multiple times.

BxPC3 = experiment: Cell based screen for inhibitors of Raf and/or Mek kinase (SRB), BxPC3; details: Homo sapiens, BXPC-3, BxPC3 cells, (a)/(b) = average of two/three runs
Procedure: [The procedure below names another cell line; the source lists this cell line under the same test.] as §1, §2, §3, §4

SMILES | IC50 [1] | IC50 (LoVo; Homo sapiens, 96 h) | IC50 (BxPC3) | melting point | IC50 (LoVo)
COc1ccccc1Oc1ccc(Nc2c(C#N)cnc3cc(N4CCC(N5CCCC5)CC4)c(OC)cc23)cc1 [Example 12, 6-Methoxy-4-{[4-(2-methoxyphenoxy)phenyl]amino}-7-(4-pyrrolidin-1-ylpiperidin-1-yl)quinoline-3-carbonitrile, trifluoroacetate salt] | 210 nM | 460 nM | 1400 nM |  | 
COc1cc2c(Nc3ccc(Sc4ccccn4)cc3)c(C#N)cnc2cc1N1CCC(N2CCCC2)CC1 [Example 13, 6-Methoxy-4-[4-(pyridin-2-ylsulfanyl)phenylamino]-7-(4-pyrrolidin-1-yl-piperidin-1-yl)-quinoline-3-carbonitrile] | 1430 nM | 470 nM | 600 nM | 182 to 184 °C | 
COc1cc2c(Nc3ccc(Sc4ccccn4)c(Cl)c3)c(C#N)cnc2cc1N1CCC(N2CCCC2)CC1 [Example 14, 4-[3-Chloro-4-(pyridin-2-ylsulfanyl)-phenylamino]-6-methoxy-7-(4-pyrrolidin-1-yl-piperidin-1-yl)-quinoline-3-carbonitrile] | 795 nM | 370 nM | 300 nM | 203 to 205 °C | 
COc1cc2c(Nc3ccc(Oc4cccnc4)cc3)c(C#N)cnc2cc1N1CCC(N2CCCC2)CC1 [Example 15, 6-Methoxy-4-[4-(pyridin-3-yloxy)-phenylamino]-7-(4-pyrrolidin-1-yl-piperidin-1-yl)-quinoline-3-carbonitrile] | 1720 nM | 261 nM | 360 nM | 194 to 196 °C | 
Cn1ccnc1Sc1ccc(Nc2c(C#N)cnc3cc(N4CCC(N5CCCC5)CC4)ccc23)cc1Cl [Example 16] | 35 nM | 9 nM | 30 nM | 125 to 130 °C | 
COCCOc1cc2c(Nc3ccc(Sc4nccn4C)c(Cl)c3)c(C#N)cnc2cc1N1CCC(N2CCCC2)CC1 [Example 17, 4-({3-Chloro-4-[(1-methyl-1H-imidazole-2-yl)thio]phenyl}amino)-6-(2-methoxyethoxy)-7-(4-pyrrolidin-1-ylpiperidin-1-yl)quinoline-3-carbonitrile] | 320 nM | 31 nM |  | 238 to 241 °C | 
CCOc1cc2c(Nc3ccc(Sc4nccn4C)c(Cl)c3)c(C#N)cnc2cc1N1CCC(N2CCCC2)CC1 [Example 18, 4-({3-chloro-4-[(1-methyl-1H-imidazole-2-yl)thio]phenyl}amino)-6-ethoxy-7-(4-pyrrolidin-1-ylpiperidin-1-yl)quinoline-3-carbonitrile] | 75 nM | 27 nM | 30 nM | 203 to 207 °C | 
COc1cc2c(Nc3ccc(Sc4nccn4C)c(Cl)c3)c(C#N)cnc2cc1N1CCC(N2CCCCC2)CC1 [Example 19] | 199 nM |  |  |  | 8 nM
COc1cc2c(Nc3ccc(Sc4nccn4C)c(Cl)c3)c(C#N)cnc2cc1N1CCC(N2CCOCC2)CC1 [Example 21, 4-({3-Chloro-4-[(1-methyl-1H-imidazole-2-yl)thio]phenyl}amino)-6-methoxy-7-(4-morpholin-4-ylpiperidin-1-yl)quinoline-3-carbonitrile] | 181 nM | 20 nM |  | 219 to 221 °C | 
COc1cc2c(Nc3ccc(Sc4nccn4C)c(Cl)c3)c(C#N)cnc2cc1N1CCN(C2CCN(C)CC2)CC1 [Example 22, 4-({3-Chloro-4-[(1-methyl-1H-imidazole-2-yl)thio]phenyl}amino)-6-methoxy-7-[4-(1-methylpiperidin-4-yl)piperazin-1-yl]quinoline-3-carbonitrile] | 273 nM | 80 nM |  | 220 to 226 °C | 
COc1cc2c(Nc3ccc(Sc4nccn4C)c(Cl)c3)c(C#N)cnc2cc1N1CCN(CCn2ccnc2)CC1 [Example 23, 4-({3-Chloro-4-[(1-methyl-1H-imidazole-2-yl)thio]phenyl}amino)-7-{4-[2-(1H-imidazole-1-yl)ethyl]piperazin-1-yl}-6-methoxyquinoline-3-carbonitrile] | 188 nM | 474 nM |  | 251 to 253 °C | 
N#Cc1c[nH]c2cc(N3CCC(N4CCCC4)CC3)c([N+](=O)[O-])cc2c1=O [Example 24, 6-Nitro-4-oxo-7-(4-pyrrolidin-1-ylpiperidin-1-yl)-1,4-dihydroquinoline-3-carbonitrile] |  |  |  | 232 to 235 °C | 
N#Cc1cnc2cc(N3CCC(N4CCCC4)CC3)c([N+](=O)[O-])cc2c1Cl [Example 25, 4-chloro-6-nitro-7-(4-pyrrolidin-1-ylpiperidin-1-yl)quinoline-3-carbonitrile] |  |  |  | 255 to 265 °C (dec.) | 
Cn1ccnc1Sc1ccc(Nc2c(C#N)cnc3cc(N4CCC(N5CCCC5)CC4)c([N+](=O)[O-])cc23)cc1Cl [Example 26, 4-({3-Chloro-4-[(1-methyl-1H-imidazole-2-yl)thio]phenyl}amino)-6-nitro-7-(4-pyrrolidin-1-ylpiperidin-1-yl)quinoline-3-carbonitrile] |  |  |  | 220 to 230 °C | 
Cn1ccnc1Sc1ccc(Nc2c(C#N)cnc3cc(N4CCC(N5CCCC5)CC4)c(N)cc23)cc1Cl [Example 27, 6-Amino-4-[3-chloro-4-(1-methyl-1H-imidazole-2-ylsulfanyl)phenylamino]-7-(4-pyrrolidin-1-yl-piperidin-1-yl)quinoline-3-carbonitrile] |  |  |  | 265 to 267 °C | 
COc1cc2c(Nc3ccc(Sc4nccn4C)c(Cl)c3)c(C#N)cnc2cc1OCCN1CCC(N2CCCC2)CC1 [Example 36, 4-{3-Chloro-4-[(1-methyl-1H-imidazole-2-yl)sulfanyl]anilino}-6-methoxy-7-{2-[4-(1-pyrrolidinyl)-1-piperidinyl]ethoxy}-3-quinolinecarbonitrile] |  |  |  | 127 to 130 °C | 
